# Measurements published in patent US20110178396A1, “Nicotinamide Derivatives” (CRC FOR BIOMEDICAL IMAGING DEVELOPMENT LTD., priority 2008, published 2011).
# Assays:
# [1] = test system: A375 human amelanotic melanoma tumour; assay: Biodistribution in A375 melanoma tumour bearing mice; format: in vivo, BALB/c nude mice; details: for uptake BLADDER / uptake BLOOD / uptake BONE / uptake BRAIN / uptake EYES / uptake GIT / uptake HEART / uptake KIDNEY / uptake LIVER / uptake LUNGS / uptake MUSCLE / uptake SKIN / uptake SPLEEN / uptake STOMACH / uptake THYROID / uptake TUMOUR / uptake URINE: A375 tumour bearing mice
# Procedure: Animal experiments were performed in compliance with the NHMRC Australian Code of Practice for the care and use of animals for scientific purposes. Female C57BL/6J black and BALB/c nude albino mice of 5 weeks age were obtained from the Animal Resources Centre, Western Australia. B16F0 murine melanoma cells were originally obtained from European Collection of Cell Cultures (UK) and A375 human amelanotic melanoma cells were originally obtained from American Type Culture Collection (USA). Before transplantation, B16F0 and A375 melanoma cells were maintained as a monolayer in RPMI culture medium supplemented with 10% foetal calf serum and antibiotics and passaged with trypsinisation. Early passages were frozen and stored in liquid nitrogen. Cells were passaged to P=10 and then discarded. Frozen aliquots were grown in a monolayer culture to between 80-95% confluence and for transplantation were trypsinised and washed with Ca^2+ and Mg^2+ free phosphate buffered saline (PBS). For inoculation, B16F0 melanoma cells were resuspended in Ca^2+ and Mg^2+ free PBS at 3 or 5×10^6 viable cells per ml and 0.1 ml was subcutaneously injected at the left flank of 6-7 weeks old C57BL/6J mice. Eleven days later, tumours could be palpated in >98% of inoculated animals. A375 human melanoma cells were resuspended at 1×10^7 viablecells per ml and 0.1 ml was injected subcutaneously at the left flank of 6 weeks old BALB/c nude mice and 25-26 days later tumours could be palpated with ˜60% of inoculated animals developing tumours.
# Eleven days (B16F0 melanoma) and 25 days (A375 human melanoma) after tumour transplantation, the [^18F]nicotinamides (0.5-1.5 MBq, 100 μl) and [^123I]nicotinamide (0.37-0.74 MBq, 100 μl) derivatives were injected intravenously via the tail vein into mice (15-18 g). Time points of 1, 3, 6, 24, 48, 72 h after injection were chosen for determining the distribution of each compound in various organs and tissues for the iodine-123 labelled compounds and between 15 min and 6 hours (e.g. 15 min, 30 min, 1 h, 2 h, 4 h or 6 h) were chosen for the ^18F-labelled compounds. At defined times post injection, groups of mice (n=5) were weighed, sacrificed by CO2 administration followed by cervical dislocation and dissected. Selected organs were weighed and their radioactivity measured with a γ-counter. The remaining activity in the carcass was also determined in order to obtain the total activity in the mouse at defined time points. The fraction of injected activity (% ID) in the organ was calculated by comparison with suitable dilutions of the injected dose. Then, the radioactivity concentration in the organ (% ID/g) was found by dividing the % ID for each organ by the weight of the organ.
# [2] = HPLC metabolite analysis in plasma, tumour, eye and urine; format: in vivo; details: for Percentage Unchanged Tracer: HPLC
structure (smiles),measurement,setting,value
"CCN(CC)CCNC(=O)c1ccc(F)nc1 [[^18F]MEL2, 6-Fluoro-N-[2-(diethylamino)ethyl]nicotinamide]",uptake in tissue (tumour and eyes),"[1]; A375 amelanotic melanoma tumour bearing mice, three hour period",low uptake
same,uptake BLADDER,[1]; 30 min,8.937 % ID/g
same,uptake BLOOD,[1]; 30 min,1.323 % ID/g
same,uptake BONE,[1]; 30 min,1.912 % ID/g
same,uptake BRAIN,[1]; 30 min,1.831 % ID/g
same,uptake EYES,[1]; 30 min,1.704 % ID/g
same,uptake GIT,[1]; 30 min,3.432 % ID/g
same,uptake HEART,[1]; 30 min,1.898 % ID/g
same,uptake KIDNEY,[1]; 30 min,7.103 % ID/g
same,uptake LIVER,[1]; 30 min,6.820 % ID/g
same,uptake LUNGS,[1]; 30 min,2.836 % ID/g
same,uptake MUSCLE,[1]; 30 min,2.125 % ID/g
same,uptake SKIN,[1]; 30 min,2.521 % ID/g
same,uptake SPLEEN,[1]; 30 min,4.093 % ID/g
same,uptake STOMACH,[1]; 30 min,3.795 % ID/g
same,uptake THYROID,[1]; 30 min,2.745 % ID/g
same,uptake TUMOUR,[1]; 30 min,2.633 % ID/g
same,uptake URINE,[1]; 30 min,609.148 % ID/g
same,uptake BLADDER,[1]; 1 h,3.717 % ID/g
same,uptake BLOOD,[1]; 1 h,0.480 % ID/g
same,uptake BONE,[1]; 1 h,0.863 % ID/g
same,uptake BRAIN,[1]; 1 h,0.822 % ID/g
same,uptake EYES,[1]; 1 h,0.626 % ID/g
same,uptake GIT,[1]; 1 h,1.564 % ID/g
same,uptake HEART,[1]; 1 h,0.604 % ID/g
same,uptake KIDNEY,[1]; 1 h,2.032 % ID/g
same,uptake LIVER,[1]; 1 h,2.670 % ID/g
same,uptake LUNGS,[1]; 1 h,0.939 % ID/g
same,uptake MUSCLE,[1]; 1 h,0.865 % ID/g
same,uptake SKIN,[1]; 1 h,1.265 % ID/g
same,uptake SPLEEN,[1]; 1 h,1.351 % ID/g
same,uptake STOMACH,[1]; 1 h,1.899 % ID/g
same,uptake THYROID,[1]; 1 h,1.162 % ID/g
same,uptake TUMOUR,[1]; 1 h,0.920 % ID/g
same,uptake URINE,[1]; 1 h,185.427 % ID/g
same,uptake BLADDER,[1]; 2 h,4.835 % ID/g
same,uptake BLOOD,[1]; 2 h,0.171 % ID/g
same,uptake BONE,[1]; 2 h,0.548 % ID/g
same,uptake BRAIN,[1]; 2 h,0.224 % ID/g
same,uptake EYES,[1]; 2 h,0.238 % ID/g
same,uptake GIT,[1]; 2 h,0.580 % ID/g
same,uptake HEART,[1]; 2 h,0.205 % ID/g
same,uptake KIDNEY,[1]; 2 h,0.650 % ID/g
same,uptake LIVER,[1]; 2 h,0.985 % ID/g
same,uptake LUNGS,[1]; 2 h,0.324 % ID/g
same,uptake MUSCLE,[1]; 2 h,0.280 % ID/g
same,uptake SKIN,[1]; 2 h,0.290 % ID/g
same,uptake SPLEEN,[1]; 2 h,0.434 % ID/g
same,uptake STOMACH,[1]; 2 h,0.748 % ID/g
same,uptake THYROID,[1]; 2 h,0.356 % ID/g
same,uptake TUMOUR,[1]; 2 h,0.254 % ID/g
same,uptake URINE,[1]; 2 h,97.912 % ID/g
same,uptake BLADDER,[1]; 3 h,0.360 % ID/g
same,uptake BLOOD,[1]; 3 h,0.054 % ID/g
same,uptake BONE,[1]; 3 h,0.443 % ID/g
same,uptake BRAIN,[1]; 3 h,0.073 % ID/g
same,uptake EYES,[1]; 3 h,0.110 % ID/g
same,uptake GIT,[1]; 3 h,0.227 % ID/g
same,uptake HEART,[1]; 3 h,0.045 % ID/g
same,uptake KIDNEY,[1]; 3 h,0.197 % ID/g
same,uptake LIVER,[1]; 3 h,0.323 % ID/g
same,uptake LUNGS,[1]; 3 h,0.099 % ID/g
same,uptake MUSCLE,[1]; 3 h,0.108 % ID/g
same,uptake SKIN,[1]; 3 h,0.169 % ID/g
same,uptake SPLEEN,[1]; 3 h,0.103 % ID/g
same,uptake STOMACH,[1]; 3 h,0.302 % ID/g
same,uptake THYROID,[1]; 3 h,0.128 % ID/g
same,uptake TUMOUR,[1]; 3 h,0.096 % ID/g
same,uptake URINE,[1]; 3 h,37.842 % ID/g
same,Percentage Unchanged Tracer,"[2]; Eye, 15 minutes",100%
same,Percentage Unchanged Tracer,"[2]; Eye, 60 minutes",96%
same,Percentage Unchanged Tracer,"[2]; Eye, 120 minutes",99%
same,form of activity taken up in the tumour and eye,[2]; HPLC analysis at various time points,unchanged [^18F]MEL2 and not metabolites
same,form excreted in urine,"[2]; HPLC analysis, all time points studied",excreted predominately as the unchanged radiotracer
same,Percentage Unchanged Tracer,"[2]; Plasma, 15 minutes",85%
same,Percentage Unchanged Tracer,"[2]; Plasma, 60 minutes",79%
same,Percentage Unchanged Tracer,"[2]; Plasma, 120 minutes",63%
same,Percentage Unchanged Tracer,"[2]; Tumour, 15 minutes",100%
same,Percentage Unchanged Tracer,"[2]; Tumour, 60 minutes",100%
same,Percentage Unchanged Tracer,"[2]; Tumour, 120 minutes",98%
same,Percentage Unchanged Tracer,"[2]; Urine, 60 minutes",90%
same,Percentage Unchanged Tracer,"[2]; Urine, 120 minutes",87%
